Results from publication PMC12015462, “Prioritization of novel anti-infective stilbene derivatives by combining metabolomic data organization and a stringent 3R-infection model in a knowledge graph” (RSC Advances, 2025).
Where two headings read alike, the source gives them in different places.

Legend:
Assay type in all cases: cell-based
Mycobacterium marinum [1] = assay: Infection assay: intracellular M. marinum growth (luminescence) in D. discoideum; details: for activity at 0.411523 µM / activity at 1.23457 µM / activity at 3.7037 µM / activity at 11.1111 µM / activity at 33.3333 µM / activity at 100 µM: 72 h; for activity at 0.411523 µM: conc 0.411522634 uM; for activity at 1.23457 µM: conc 1.234567901 uM; for activity at 3.7037 µM: conc 3.703703704 uM; for activity at 11.1111 µM: conc 11.11111111 uM; for activity at 33.3333 µM: conc 33.33333333 uM; for activity at 100 µM: conc 100 uM; for IC50: interpolated between the two concentrations closest to residual growth 0.5, top concentration 100 μM
Excerpt: (§1) Since fractions were not weighed individually, the injection mass was used to calculate an average mass per fraction and thus a nominal mass concentration.

Dictyostelium discoideum = assay: Infection assay: growth of the host amoeba D. discoideum (fluorescence) in infection; details: for activity at 0.411523 µM / activity at 1.23457 µM / activity at 3.7037 µM / activity at 11.1111 µM / activity at 33.3333 µM / activity at 100 µM: 72 h; for IC50: read-out: IC50 Dd in infection (μM)
Excerpt: as §1

Mycobacterium marinum [2] = assay: Anti-biotic assay: M. marinum growth in broth (luminescence); details: for activity at 0.411523 µM / activity at 1.23457 µM / activity at 3.7037 µM / activity at 11.1111 µM / activity at 33.3333 µM / activity at 100 µM: 72 h
Experimental: as §1
Plating bacteria and compounds or fractions was performed analogously to the infection assay described above. Bacteria growth was monitored with the Agilent BioTek H1 plate reader by recording luminescence at 32 °C.
The prepared plates were sealed and stored at 4 °C overnight. On the day of the experiment, nine 10 cm Petri dishes were infected (as described before) and grouped into three pools.

[3] = vehicle control set at 1, read-out: mean normalized residual growth, Mm in infection
[4] = vehicle control set at 1, read-out: median normalized residual growth, Mm in infection
[5] = read-out: mean normalized residual growth, Dd in infection
[6] = read-out: median normalized residual growth, Dd in infection
[7] = read-out: mean (normalised M. marinum growth, Mm in broth)
[8] = read-out: median (normalised M. marinum growth, Mm in broth)

Oc1ccc(/C=C/c2cc(O)c3c(c2)O[C@H](c2ccc(O)cc2)[C@H]3c2cc(O)c3c(c2)O[C@H](c2ccc(O)cc2)[C@H]3c2cc(O)c3c(c2)O[C@H](c2ccc(O)cc2)[C@H]3c2cc(O)cc(O)c2)cc1 [Compound 8, Gnemonol B]
activity at 0.411523 µM (Mycobacterium marinum [1]; [3]): 132%
activity at 0.411523 µM (Mycobacterium marinum [1]; [4]): 146%
activity at 1.23457 µM (Mycobacterium marinum [1]; [3]): 105%
activity at 1.23457 µM (Mycobacterium marinum [1]; [4]): 94.6%
activity at 3.7037 µM (Mycobacterium marinum [1]; [3]): 127%
activity at 3.7037 µM (Mycobacterium marinum [1]; [4]): 144%
activity at 11.1111 µM (Mycobacterium marinum [1]; [3]): 124%
activity at 11.1111 µM (Mycobacterium marinum [1]; [4]): 128%
activity at 33.3333 µM (Mycobacterium marinum [1]; [3]): 112%
activity at 33.3333 µM (Mycobacterium marinum [1]; [4]): 117%
activity at 100 µM (Mycobacterium marinum [1]; [3]): 61%
activity at 100 µM (Mycobacterium marinum [1]; [4]): 45.3%
IC50 (Mycobacterium marinum [1]): 66.7 µM
activity at 0.411523 µM (Dictyostelium discoideum; [5]): 159%
activity at 1.23457 µM (Dictyostelium discoideum; [5]): 139%
activity at 3.7037 µM (Dictyostelium discoideum; [5]): 139%
activity at 11.1111 µM (Dictyostelium discoideum; [5]): 120%
activity at 33.3333 µM (Dictyostelium discoideum; [5]): 114%
activity at 100 µM (Dictyostelium discoideum; [5]): 51.3%
activity at 0.411523 µM (Dictyostelium discoideum; [6]): 92.7%
activity at 1.23457 µM (Dictyostelium discoideum; [6]): 85.7%
activity at 3.7037 µM (Dictyostelium discoideum; [6]): 92.1%
activity at 11.1111 µM (Dictyostelium discoideum; [6]): 88.6%
activity at 33.3333 µM (Dictyostelium discoideum; [6]): 81.5%
activity at 100 µM (Dictyostelium discoideum; [6]): 33.4%
IC50 (Dictyostelium discoideum): 66.7 µM
activity at 0.411523 µM (Mycobacterium marinum [2]; [7]): 118%
activity at 1.23457 µM (Mycobacterium marinum [2]; [7]): 111%
activity at 3.7037 µM (Mycobacterium marinum [2]; [7]): 113%
activity at 11.1111 µM (Mycobacterium marinum [2]; [7]): 119%
activity at 33.3333 µM (Mycobacterium marinum [2]; [7]): 117%
activity at 100 µM (Mycobacterium marinum [2]; [7]): 114%
activity at 0.411523 µM (Mycobacterium marinum [2]; [8]): 125%
activity at 1.23457 µM (Mycobacterium marinum [2]; [8]): 116%
activity at 3.7037 µM (Mycobacterium marinum [2]; [8]): 117%
activity at 11.1111 µM (Mycobacterium marinum [2]; [8]): 115%
activity at 33.3333 µM (Mycobacterium marinum [2]; [8]): 120%
activity at 100 µM (Mycobacterium marinum [2]; [8]): 115%
IC50 (Mycobacterium marinum [2]; read-out: IC50 Mm in broth (μM)): > 100 µM

Oc1ccc([C@@H]2Oc3cc(O)ccc3[C@H]3[C@H](c4cc(O)cc(O)c4)c4c(O)cc(O)cc4[C@H]32)cc1 [Compound 9, (−)-Gnemontanin G]
activity at 0.411523 µM (Mycobacterium marinum [1]; [3]): 59%
activity at 0.411523 µM (Mycobacterium marinum [1]; [4]): 69.2%
activity at 1.23457 µM (Mycobacterium marinum [1]; [3]): 82.5%
activity at 1.23457 µM (Mycobacterium marinum [1]; [4]): 85.7%
activity at 3.7037 µM (Mycobacterium marinum [1]; [3]): 76.2%
activity at 3.7037 µM (Mycobacterium marinum [1]; [4]): 74.2%
activity at 11.1111 µM (Mycobacterium marinum [1]; [3]): 58.4%
activity at 11.1111 µM (Mycobacterium marinum [1]; [4]): 59.5%
activity at 33.3333 µM (Mycobacterium marinum [1]; [3]): 65.6%
activity at 33.3333 µM (Mycobacterium marinum [1]; [4]): 72.4%
activity at 100 µM (Mycobacterium marinum [1]; [3]): 71.9%
activity at 100 µM (Mycobacterium marinum [1]; [4]): 75.7%
IC50 (Mycobacterium marinum [1]): > 100 µM
activity at 0.411523 µM (Dictyostelium discoideum; [5]): 58.2%
activity at 1.23457 µM (Dictyostelium discoideum; [5]): 70.8%
activity at 3.7037 µM (Dictyostelium discoideum; [5]): 60.4%
activity at 11.1111 µM (Dictyostelium discoideum; [5]): 64.9%
activity at 33.3333 µM (Dictyostelium discoideum; [5]): 72.5%
activity at 100 µM (Dictyostelium discoideum; [5]): 103%
activity at 0.411523 µM (Dictyostelium discoideum; [6]): 95.8%
activity at 1.23457 µM (Dictyostelium discoideum; [6]): 97.6%
activity at 3.7037 µM (Dictyostelium discoideum; [6]): 99.6%
activity at 11.1111 µM (Dictyostelium discoideum; [6]): 93.8%
activity at 33.3333 µM (Dictyostelium discoideum; [6]): 91.4%
activity at 100 µM (Dictyostelium discoideum; [6]): 91.6%
IC50 (Dictyostelium discoideum): > 100 µM
activity at 0.411523 µM (Mycobacterium marinum [2]; [7]): 87.4%
activity at 1.23457 µM (Mycobacterium marinum [2]; [7]): 93.9%
activity at 3.7037 µM (Mycobacterium marinum [2]; [7]): 92.7%
activity at 11.1111 µM (Mycobacterium marinum [2]; [7]): 81.3%
activity at 33.3333 µM (Mycobacterium marinum [2]; [7]): 89.2%
activity at 100 µM (Mycobacterium marinum [2]; [7]): 92.6%
activity at 0.411523 µM (Mycobacterium marinum [2]; [8]): 86.6%
activity at 1.23457 µM (Mycobacterium marinum [2]; [8]): 96.7%
activity at 3.7037 µM (Mycobacterium marinum [2]; [8]): 92.3%
activity at 11.1111 µM (Mycobacterium marinum [2]; [8]): 78.6%
activity at 33.3333 µM (Mycobacterium marinum [2]; [8]): 87.9%
activity at 100 µM (Mycobacterium marinum [2]; [8]): 91.7%
